Measured values taken from patent publication US20220073554A1, “LINCOSAMIDE ANTIBIOTICS AND USES THEREOF” (President and Fellows of Harvard College, priority 2017, published 2022).
Values after ≈ are worked out from the molar mass of the structure shown. Read-outs that look alike come from different tables or passages of the source.

Experiments:
Format in all cases: cell-based
[1] = system: P. aeruginosa MMX 3476 Δmex; assay: MIC against P. aeruginosa MMX 3476 Δmex; conditions: Pseudomonas aeruginosa
[2] = system: S. pneumoniae MMX 3028 cErmB; assay: MIC against S. pneumoniae MMX 3028 cErmB; conditions: Streptococcus pneumoniae, MMX3028CERMB
S. aureus MMX 3035 cErmA = assay: MIC against S. aureus MMX 3035 cErmA; conditions: Staphylococcus aureus, MMX3035CERMA
[3] = system: E. faecalis MMX 847 Macrolide-Resistant; assay: MIC against E. faecalis MMX 847 Macrolide-Resistant; conditions: Enterococcus faecalis
[4] = system: P. aeruginosa MMX Mex parent strain; assay: MIC against P. aeruginosa MMX Mex parent strain; conditions: Pseudomonas aeruginosa
E. faecalis ATCC 29212 = assay: MIC against E. faecalis ATCC 29212; conditions: Enterococcus faecalis
S. aureus ATCC 29213 = assay: MIC against S. aureus ATCC 29213; conditions: Staphylococcus aureus
[5] = system: E. coli MMX TolC parent strain; assay: MIC against E. coli MMX TolC parent strain; conditions: Escherichia coli
E. coli ATCC 25922 = assay: MIC against E. coli ATCC 25922; conditions: Escherichia coli, ATCC25922
[6] = system: S. pyogenes MMX 946 Macrolide-Resistant; assay: MIC against S. pyogenes MMX 946 Macrolide-Resistant; conditions: Streptococcus pyogenes
S. aureus BAA 977 iErmA = assay: MIC against S. aureus BAA 977 iErmA; conditions: Staphylococcus aureus, BAA977
[7] = system: S. aureus Micromyx USA 300; assay: MIC against S. aureus Micromyx USA 300; conditions: Staphylococcus aureus, USA300
C. difficile BAA 1805 = assay: MIC against C. difficile BAA 1805; conditions: Clostridioides difficile, BAA1805
B. fragilis ATCC 25285 = assay: MIC against B. fragilis ATCC 25285; conditions: Bacteroides fragilis, ATCC25285
H. influenzae ATCC 49247 = assay: MIC against H. influenzae ATCC 49247; conditions: Haemophilus influenzae, ATCC49247
P. aeruginosa ATCC 27853 = assay: MIC against P. aeruginosa ATCC 27853; conditions: Pseudomonas aeruginosa, ATCC27853
E. coli MMX 0121 ΔTolC = assay: MIC against E. coli MMX 0121 ΔTolC; conditions: Escherichia coli
E. coli ATCC 15922 = assay: MIC against E. coli ATCC 15922; conditions: Escherichia coli, ATCC15922
S. pyogenes ATCC 19615 = assay: MIC against S. pyogenes ATCC 19615; conditions: Streptococcus pyogenes, ATCC19615; S. pyogenes ATCC 19615; read-out: MIC
[8] = system: S. pneumoniae MMX 3031 cMefA; assay: MIC against S. pneumoniae MMX 3031 cMefA; conditions: Streptococcus pneumoniae, MMX3031CMEFA
S. pneumoniae ATCC 49619 = assay: MIC against S. pneumoniae ATCC 49619; conditions: Streptococcus pneumoniae, ATCC49619; S. pneumoniae ATCC 49619; read-out: MIC
[9] = ATCC29213, S. aureus ATCC 29213, read-out: MIC
[10] = S. aureus Micromyx USA 300, read-out: MIC

CSC1O[C@H]([C@H](NC(=O)[C@H]2NC[C@@H]3C=C(c4ccccc4)CCO[C@@H]23)[C@H](C)Cl)C(O)[C@@H](O)[C@H]1O (stereo partly shown) [FSA-507031]
MIC [1]: > 32 µg/mL
MIC [2]: > 32 µg/mL
MIC (S. aureus MMX 3035 cErmA): > 32 µg/mL
MIC [3]: > 32 µg/mL
MIC [4]: > 32 µg/mL
MIC (E. faecalis ATCC 29212; ATCC29212): > 32 µg/mL
MIC (S. aureus ATCC 29213; ATCC29213): > 32 µg/mL
MIC [5]: > 32 µg/mL
MIC (E. coli ATCC 25922): > 32 µg/mL
MIC [6]: > 32 µg/mL
MIC (S. aureus BAA 977 iErmA): > 32 µg/mL
MIC [7]: > 32 µg/mL
MIC (C. difficile BAA 1805): > 32 µg/mL
MIC (B. fragilis ATCC 25285): > 32 µg/mL
MIC (H. influenzae ATCC 49247; H. influenzae ATCC 49247, read-out: MIC): 8 µg/mL (≈ 15.6 µM)
MIC (P. aeruginosa ATCC 27853): > 32 µg/mL
MIC (E. coli MMX 0121 ΔTolC): > 32 µg/mL

CSC1O[C@H]([C@H](NC(=O)[C@H]2NC[C@@H]3C=C(c4ccc(F)cc4)CCO[C@@H]23)[C@H](C)Cl)C(O)[C@@H](O)[C@H]1O (stereo partly shown) [FSA-507052]
MIC [1]: > 32 µg/mL
MIC [2]: > 32 µg/mL
MIC (S. aureus MMX 3035 cErmA): > 32 µg/mL
MIC [3]: > 32 µg/mL
MIC [4]: > 32 µg/mL
MIC (E. faecalis ATCC 29212; ATCC29212, read-out: MIC): 1 µg/mL (≈ 1.88 µM)
MIC (S. aureus ATCC 29213; [9]): 2 µg/mL (≈ 3.77 µM)
MIC [5]: > 32 µg/mL
MIC [6]: > 32 µg/mL
MIC (E. coli ATCC 15922): > 32 µg/mL
MIC (S. aureus BAA 977 iErmA): 2 µg/mL (≈ 3.77 µM)
MIC [7, 10]: 0.5 µg/mL (≈ 0.942 µM)
MIC (B. fragilis ATCC 25285): > 32 µg/mL
MIC (H. influenzae ATCC 49247): > 32 µg/mL
MIC (P. aeruginosa ATCC 27853): > 32 µg/mL
MIC (E. coli MMX 0121 ΔTolC): > 32 µg/mL

CSC1O[C@H]([C@H](NC(=O)[C@H]2NC[C@@H]3C=C(c4ccc(C(F)(F)F)cc4)CCO[C@@H]23)[C@H](C)Cl)C(O)[C@@H](O)[C@H]1O (stereo partly shown) [FSA-507053]
MIC [1]: > 64 µg/mL
MIC (S. aureus MMX 3035 cErmA): > 64 µg/mL
MIC [3]: > 64 µg/mL
MIC [4]: > 64 µg/mL
MIC (E. faecalis ATCC 29212; ATCC29212, read-out: MIC): 2 µg/mL (≈ 3.44 µM)
MIC [5]: > 64 µg/mL
MIC (E. coli ATCC 15922): > 64 µg/mL
MIC [7, 10]: 0.5 µg/mL (≈ 0.861 µM)
MIC (C. difficile BAA 1805; C. difficile BAA 1805, read-out: MIC): 8 µg/mL (≈ 13.8 µM)
MIC (S. pyogenes ATCC 19615): ≤ 0.06 µg/mL
MIC (P. aeruginosa ATCC 27853): > 64 µg/mL

CSC1O[C@H]([C@H](NC(=O)[C@H]2NC[C@@H]3CC(c4ccccc4)=CCO[C@H]32)[C@H](C)Cl)C(O)[C@@H](O)[C@H]1O (stereo partly shown) [FSA-507056]
MIC [1]: > 32 µg/mL
MIC [2]: > 32 µg/mL
MIC (S. aureus MMX 3035 cErmA): > 32 µg/mL
MIC [3]: > 32 µg/mL
MIC [4]: > 32 µg/mL
MIC (E. faecalis ATCC 29212; ATCC29212, read-out: MIC): 2 µg/mL (≈ 3.9 µM)
MIC (S. aureus ATCC 29213; [9]): 1 µg/mL (≈ 1.95 µM)
MIC [5]: > 32 µg/mL
MIC (E. coli ATCC 25922): > 32 µg/mL
MIC [6]: > 32 µg/mL
MIC (S. aureus BAA 977 iErmA): 1 µg/mL (≈ 1.95 µM)
MIC [7, 10]: 0.5 µg/mL (≈ 0.975 µM)
MIC (B. fragilis ATCC 25285): > 32 µg/mL
MIC (H. influenzae ATCC 49247): > 32 µg/mL
MIC (P. aeruginosa ATCC 27853): > 32 µg/mL
MIC (E. coli MMX 0121 ΔTolC): > 32 µg/mL

CSC1O[C@H]([C@H](NC(=O)[C@H]2NC[C@@H]3CC(c4ccc(F)cc4)=CCO[C@H]32)[C@H](C)Cl)C(O)[C@@H](O)[C@H]1O (stereo partly shown) [FSA-507057]
MIC [1]: > 64 µg/mL
MIC [8]: ≤ 0.06 µg/mL
MIC (S. aureus MMX 3035 cErmA): > 64 µg/mL
MIC [3]: > 64 µg/mL
MIC [4]: > 64 µg/mL
MIC (E. faecalis ATCC 29212; ATCC29212, read-out: MIC): 1 µg/mL (≈ 1.88 µM)
MIC (S. aureus ATCC 29213; [9]): 2 µg/mL (≈ 3.77 µM)
MIC [5]: > 64 µg/mL
MIC [6]: > 64 µg/mL
MIC (E. coli ATCC 15922): > 64 µg/mL
MIC (S. aureus BAA 977 iErmA): 1 µg/mL (≈ 1.88 µM)
MIC [7, 10]: 1 µg/mL (≈ 1.88 µM)
MIC (P. aeruginosa ATCC 27853): > 64 µg/mL
MIC (S. pneumoniae ATCC 49619): ≤ 0.06 µg/mL

CSC1O[C@H]([C@H](NC(=O)[C@H]2NC[C@@H]3CC(c4ccc(C(F)(F)F)cc4)=CCO[C@H]32)[C@H](C)Cl)C(O)[C@@H](O)[C@H]1O (stereo partly shown) [FSA-507060]
MIC [1]: > 64 µg/mL
MIC [4]: > 64 µg/mL
MIC (E. faecalis ATCC 29212; ATCC29212, read-out: MIC): 8 µg/mL (≈ 13.8 µM)
MIC (S. aureus ATCC 29213; [9]): 2 µg/mL (≈ 3.44 µM)
MIC (S. aureus BAA 977 iErmA): 1 µg/mL (≈ 1.72 µM)
MIC [7, 10]: 0.12 µg/mL (≈ 0.207 µM)
MIC (P. aeruginosa ATCC 27853): > 64 µg/mL
MIC (S. pneumoniae ATCC 49619): 0.5 µg/mL (≈ 0.861 µM)
